{"source": "patent US20190071670A1", "about": "“Methods Of Treatment For Alpha-1 Antitrypsin Deficiency” (Arrowhead Pharmaceuticals, Inc., priority 2016, published 2019)", "system": "hAAT", "test": "Serum hAAT protein levels in PiZ mice (ELISA)", "format": "in vivo, human (expressed in PiZ mice)", "details": "for Normalized serum hAAT levels / Serum hAAT normalized to Day 1 and control / Serum hAAT normalized to day 1: PiZ mice; for Normalized serum hAAT levels: normalized to day 1 and saline control; for Serum hAAT normalized to Day 1 and control: single IV 4 mg/kg + 8 mg/kg MLP delivery polymer; for Serum hAAT normalized to day 1: single IV 6 mg/kg with 6 mg/kg MLP delivery polymer; for Serum hAAT normalized to day 1 and controls: female PiZ mice, single IV 8 mg/kg + 8 mg/kg MLP delivery polymer", "protocol": "Human AAT protein levels in serum were monitored for 29 days. At the indicated times, blood samples were collected and assayed for hAAT by ELISA. Day 1 samples were collected prior to trigger administration. For mRNA analysis, 3-4 mice were euthanized at each of days 3, 8, 15, 22, and 29. For euthanized mice, cardiac stick were performed for serum isolation for AAT ELISA (200 μl serum). Half of the left lateral liver lobe was collected and snap-freeze in liquid nitrogen for RNA isolation. The remainder of the left lobes were embedded into paraffin blocks for PAS-D staining with hematoxylin as counter-stain. Serum hAAT levels in mice given AAT Duplex Pair SEQ ID NO: 5/6 were 95% reduced on day 8 and remained reduced to day 29, at which time they were 79% reduced. Mice given AAT Duplex Pair SEQ ID NO: 5/6 were euthanized at either day 3, 8, 15, 22 or 29. Mice given saline or Luciferase siRNA control (SEQ ID 7/8) were euthanized on day 29. Levels of hAAT mRNA in the livers were measured by RT-qPCR. The hAAT mRNA in mice given AAT Duplex Pair SEQ ID NO: 5/6 was reduced by 97% on day 3 and remained reduced on day 29, at which time levels were 56% reduced. The size of the globules and the area of the liver covered by globules was digitally quantitated from liver specimens stained with PAS-D. Duplex Pair SEQ ID NO: 5/6 treated mice had 70% smaller globules at day 15 and 62% smaller globules at day 29. The area of the liver covered with globules was 83% reduced on day 15 and 72% reduced on day 29 (FIG. 5).", "note": "Values joined by “and” are separate entries in the source; they are usually repeats but may differ in a detail not shown here. Equal entries are not always repeated."}
{"substance": "Duplex Pair SEQ ID NO: 5/6: double-stranded AAT RNAi agent: modified antisense strand SEQ ID NO: 5 annealed to Chol-TEG sense strand SEQ ID NO: 6 (antisense TGGAACUUGGUGAUGAUAUTT; sense UAUAUAUCAUCACCAAGUUCCAT; Chol-TEG on sense strand; chemical modifications; antisense strand of dsRNA; modified_base 7 /mod_base = “2′-3′ seco corresponding nucleotide”; modified_base 2,4,6,8,10,12,14,16,18 /mod_base = “2′-deoxy-2′-fluoro corresponding nucleoside”; modified_base 3,5,9,11,13,15,17,19 /mod_base = “2′-O-methyl corresponding nucleoside”; modified_base 21 /mod_base = “5′-phosphorothioate corresponding nucleotide”; sense strand of dsRNA; modified_base 2 /mod_base = “2′-hydroxy corresponding nucleoside”; modified_base 4,6,8,10,12,14,16,18,20,22 /mod_base = “2′-deoxy-2′-fluoro corresponding nucleoside”; …)", "values": [{"measurement": "Normalized serum hAAT levels", "setting": "single IV 4 mg/kg + 4 mg/kg MLP, day 1", "value": 1.00}, {"measurement": "Normalized serum hAAT levels", "setting": "single IV 4 mg/kg + 4 mg/kg MLP, day 8", "value": "0.03 ± 0.01"}, {"measurement": "Normalized serum hAAT levels", "setting": "single IV 4 mg/kg + 4 mg/kg MLP, day 15", "value": "0.23 ± 0.04"}, {"measurement": "Normalized serum hAAT levels", "setting": "single IV 4 mg/kg + 4 mg/kg MLP, day 20", "value": "0.32 ± 0.05"}, {"measurement": "Normalized serum hAAT levels", "setting": "single IV 4 mg/kg + 4 mg/kg MLP, day 29", "value": "0.66 ± 0.10"}, {"measurement": "Normalized serum hAAT levels", "setting": "single IV 4 mg/kg + 4 mg/kg MLP, day 36", "value": "0.83 ± 0.06"}, {"measurement": "Normalized serum hAAT levels", "setting": "single IV 4 mg/kg + 4 mg/kg MLP, day −7", "value": "0.68 ± 0.07"}, {"measurement": "Serum hAAT normalized to Day 1 and control", "setting": "Day 1", "value": 1.00}, {"measurement": "Serum hAAT normalized to Day 1 and control", "setting": "Day 3", "value": "0.20 ± 0.04"}, {"measurement": "Serum hAAT normalized to Day 1 and control", "setting": "Day 8", "value": "0.05 ± 0.01"}, {"measurement": "Serum hAAT normalized to Day 1 and control", "setting": "Day 15", "value": "0.09 ± 0.01"}, {"measurement": "Serum hAAT normalized to Day 1 and control", "setting": "Day 22", "value": "0.28 ± 0.05"}, {"measurement": "Serum hAAT normalized to Day 1 and control", "setting": "Day 29", "value": "0.35 ± 0.05"}, {"measurement": "Serum hAAT normalized to Day 1 and control", "setting": "Day 35", "value": "0.81 ± 0.12"}, {"measurement": "Serum hAAT normalized to Day 1 and control", "setting": "Day −3", "value": "0.73 ± 0.13"}, {"measurement": "Serum hAAT normalized to day 1", "setting": "day 1 (reference)", "value": 1.00}, {"measurement": "Serum hAAT normalized to day 1", "setting": "day 3, listed as AAT RNAi agent (SEQ ID NO: 5/6), 6 mg/kg", "value": "0.326 ± 0.021 and 0.274 ± 0.072"}, {"measurement": "Serum hAAT normalized to day 1", "setting": "day 10", "value": "0.105 ± 0.033"}, {"measurement": "Normalized serum hAAT levels", "setting": "single IV 8 mg/kg + 2 mg/kg MLP, day 1", "value": 1.00}, {"measurement": "Normalized serum hAAT levels", "setting": "single IV 8 mg/kg + 2 mg/kg MLP, day 8", "value": "0.09 ± 0.05"}, {"measurement": "Normalized serum hAAT levels", "setting": "single IV 8 mg/kg + 2 mg/kg MLP, day 15", "value": "0.59 ± 0.16"}, {"measurement": "Normalized serum hAAT levels", "setting": "single IV 8 mg/kg + 2 mg/kg MLP, day 20", "value": "0.74 ± 0.10"}, {"measurement": "Normalized serum hAAT levels", "setting": "single IV 8 mg/kg + 2 mg/kg MLP, day 29", "value": "0.87 ± 0.20"}, {"measurement": "Normalized serum hAAT levels", "setting": "single IV 8 mg/kg + 2 mg/kg MLP, day 36", "value": "0.74 ± 0.08"}, {"measurement": "Normalized serum hAAT levels", "setting": "single IV 8 mg/kg + 2 mg/kg MLP, day −7", "value": "0.70 ± 0.15"}, {"measurement": "Normalized serum hAAT levels", "setting": "single IV 8 mg/kg + 4 mg/kg MLP, day 1", "value": 1.00}, {"measurement": "Normalized serum hAAT levels", "setting": "single IV 8 mg/kg + 4 mg/kg MLP, day 8", "value": "0.04 ± 0.02"}, {"measurement": "Normalized serum hAAT levels", "setting": "single IV 8 mg/kg + 4 mg/kg MLP, day 15", "value": "0.27 ± 0.05"}, {"measurement": "Normalized serum hAAT levels", "setting": "single IV 8 mg/kg + 4 mg/kg MLP, day 20", "value": "0.35 ± 0.05"}, {"measurement": "Normalized serum hAAT levels", "setting": "single IV 8 mg/kg + 4 mg/kg MLP, day 29", "value": "0.80 ± 0.20"}, {"measurement": "Normalized serum hAAT levels", "setting": "single IV 8 mg/kg + 4 mg/kg MLP, day 36", "value": "1.00 ± 0.20"}, {"measurement": "Normalized serum hAAT levels", "setting": "single IV 8 mg/kg + 4 mg/kg MLP, day −7", "value": "0.70 ± 0.24"}, {"measurement": "Normalized serum hAAT levels", "setting": "single IV 8 mg/kg + 8 mg/kg MLP, day 1", "value": 1.00}, {"measurement": "Normalized serum hAAT levels", "setting": "single IV 8 mg/kg + 8 mg/kg MLP, day 8", "value": "0.02 ± 0.00"}, {"measurement": "Normalized serum hAAT levels", "setting": "single IV 8 mg/kg + 8 mg/kg MLP, day 15", "value": "0.13 ± 0.06"}, {"measurement": "Normalized serum hAAT levels", "setting": "single IV 8 mg/kg + 8 mg/kg MLP, day 20", "value": "0.16 ± 0.04"}, {"measurement": "Normalized serum hAAT levels", "setting": "single IV 8 mg/kg + 8 mg/kg MLP, day 29", "value": "0.43 ± 0.08"}, {"measurement": "Normalized serum hAAT levels", "setting": "single IV 8 mg/kg + 8 mg/kg MLP, day 36", "value": "0.78 ± 0.23"}, {"measurement": "Normalized serum hAAT levels", "setting": "single IV 8 mg/kg + 8 mg/kg MLP, day −7", "value": "0.89 ± 0.54"}, {"measurement": "Serum hAAT normalized to day 1 and controls", "setting": "mice euthanized Day 3, Day 1", "value": 1.000}, {"measurement": "Serum hAAT normalized to day 1 and controls", "setting": "mice euthanized Day 3, Day 3", "value": "0.255 ± 0.040"}, {"measurement": "Serum hAAT normalized to day 1 and controls", "setting": "mice euthanized Day 3, Day −2", "value": "1.068 ± 0.070"}, {"measurement": "Serum hAAT normalized to day 1 and controls", "setting": "mice euthanized Day 8, Day 1", "value": 1.000}, {"measurement": "Serum hAAT normalized to day 1 and controls", "setting": "mice euthanized Day 8, Day 3", "value": "0.184 ± 0.025"}, {"measurement": "Serum hAAT normalized to day 1 and controls", "setting": "mice euthanized Day 8, Day 8", "value": "0.054 ± 0.004"}, {"measurement": "Serum hAAT normalized to day 1 and controls", "setting": "mice euthanized Day 8, Day −2", "value": "0.895 ± 0.129"}, {"measurement": "Serum hAAT normalized to day 1 and controls", "setting": "mice euthanized Day 15, Day 1", "value": 1.000}, {"measurement": "Serum hAAT normalized to day 1 and controls", "setting": "mice euthanized Day 15, Day 3", "value": "0.243 ± 0.060"}, {"measurement": "Serum hAAT normalized to day 1 and controls", "setting": "mice euthanized Day 15, Day 8", "value": "0.066 ± 0.023"}, {"measurement": "Serum hAAT normalized to day 1 and controls", "setting": "mice euthanized Day 15, Day 15", "value": "0.095 ± 0.063"}, {"measurement": "Serum hAAT normalized to day 1 and controls", "setting": "mice euthanized Day 15, Day −2", "value": "0.66 ± 0.121"}, {"measurement": "Serum hAAT normalized to day 1 and controls", "setting": "mice euthanized Day 22, Day 1", "value": 1.000}, {"measurement": "Serum hAAT normalized to day 1 and controls", "setting": "mice euthanized Day 22, Day 3", "value": "0.202 ± 0.054"}, {"measurement": "Serum hAAT normalized to day 1 and controls", "setting": "mice euthanized Day 22, Day 8", "value": "0.044 ± 0.010"}, {"measurement": "Serum hAAT normalized to day 1 and controls", "setting": "mice euthanized Day 22, Day 15", "value": "0.056 ± 0.011"}, {"measurement": "Serum hAAT normalized to day 1 and controls", "setting": "mice euthanized Day 22, Day 22", "value": "0.100 ± 0.039"}, {"measurement": "Serum hAAT normalized to day 1 and controls", "setting": "mice euthanized Day 22, Day −2", "value": "0.779 ± 0.280"}, {"measurement": "Serum hAAT normalized to day 1 and controls", "setting": "mice euthanized Day 29, Day 1", "value": 1.000}, {"measurement": "Serum hAAT normalized to day 1 and controls", "setting": "mice euthanized Day 29, Day 3", "value": "0.238 ± 0.062"}, {"measurement": "Serum hAAT normalized to day 1 and controls", "setting": "mice euthanized Day 29, Day 8", "value": "0.052 ± 0.015"}, {"measurement": "Serum hAAT normalized to day 1 and controls", "setting": "mice euthanized Day 29, Day 15", "value": "0.057 ± 0.016"}, {"measurement": "Serum hAAT normalized to day 1 and controls", "setting": "mice euthanized Day 29, Day 22", "value": "0.103 ± 0.032"}, {"measurement": "Serum hAAT normalized to day 1 and controls", "setting": "mice euthanized Day 29, Day 29", "value": "0.209 ± 0.071"}, {"measurement": "Serum hAAT normalized to day 1 and controls", "setting": "mice euthanized Day 29, Day −2", "value": "0.653 ± 0.102"}]}
